# Data taken from ChEMBL document CHEMBL5543112, “Discovery of CBPD-268 as an Exceptionally Potent and Orally Efficacious CBP/p300 PROTAC Degrader Capable of Achieving Tumor Regression” (J Med Chem, 2024).
# Tests used:
# [1] = molecular target: T1, Cytochrome P450 3A4 (Homo sapiens, UniProt P08684); experiment: Inhibition of CYP3A4 (unknown origin) using midazolam as substrate preincubated with compound for 5 mins followed by NADPH addition and measured after 20 mins by LC-MS/MS analysis; type: ADME
# [2] = Drug distribution in Sprague-Dawley rat liver at 3 mg/kg, po measured at 6 hrs by LC-MS/MS analysis; type: ADME, organism-based; conditions: read-out: Ct
# [3] = Oral bioavailability in ICR mouse at 3 mg/kg measured upto 24 hrs by LC/MS-MS analysis; type: ADME, organism-based; conditions: in vivo
# [4] = Metabolic stability in rat plasma assessed as half life measured upto 120 mins by LC-MS/MS analysis; type: ADME, cell-free
# [5] = Toxicity in immune-competent Sprague-Dawley rat assessed as change in creatinine level at 1 to 10 mg/kg, po administered twice a week for 5 weeks; type: organism-based; conditions: in vivo, 840 h, dose 1-10 mg/kg
# [6] = Drug distribution in SCID mouse liver at 0.3 mg/kg, po measured at 1 hr by LC-MS/MS analysis; type: ADME, organism-based; conditions: read-out: Ct
# [7] = Metabolic stability in rat liver microsome assessed as half life measured upto 60 mins in presence of NADPH by LC-MS/MS analysis; type: ADME; conditions: liver microsomes
# [8] = Metabolic stability in mouse plasma assessed as half life measured upto 120 mins by LC-MS/MS analysis; type: ADME, cell-free
# [9] = Metabolic stability in mouse liver microsome assessed as half life measured upto 60 mins in presence of NADPH by LC-MS/MS analysis; type: ADME; conditions: liver microsomes
# [10] = Toxicity in immune-competent Sprague-Dawley rat assessed as change in calcium level at 1 to 10 mg/kg, po administered twice a week for 5 weeks; type: organism-based; conditions: in vivo, 840 h, dose 1-10 mg/kg
# [11] = Toxicity in immune-competent Sprague-Dawley rat assessed as change in blood urea nitrogen level at 1 to 10 mg/kg, po administered twice a week for 5 weeks; type: organism-based; conditions: in vivo, 840 h, dose 1-10 mg/kg
# [12] = Drug concentration in SCID mouse plasma at 1 mg/kg, po measured at 1 hr by LC-MS/MS analysis; type: ADME, organism-based
# [13] = Drug distribution in Sprague-Dawley rat heart at 10 mg/kg, po measured at 1 hr by LC-MS/MS analysis; type: ADME, organism-based; conditions: read-out: Ct
# [14] = Metabolic stability in dog plasma assessed as half life measured upto 120 mins by LC-MS/MS analysis; type: ADME, cell-free, Canis lupus familiaris
# [15] = test system: VCaP; experiment: Antitumor activity against human VCaP cells xenografted in SCID mouse assessed as tumor regression at 3 mg/kg, po administered 3 times a week for 4 weeks; type: functional
# [16] = Toxicity in immune-competent Sprague-Dawley rat assessed as change in alkaline phosphatase level at 1 to 10 mg/kg, po administered twice a week for 5 weeks; type: organism-based; conditions: in vivo, 840 h, dose 1-10 mg/kg
# [17] = molecular target: T1, Cytochrome P450 3A4; experiment: Inhibition of CYP3A4 (unknown origin) using testosterone as substrate preincubated with compound for 5 mins followed by NADPH addition and measured after 20 mins by LC-MS/MS analysis; type: ADME
# [18] = Toxicity in immune-competent Sprague-Dawley rat assessed as change in eosinophil at 1 to 10 mg/kg, po administered twice a week for 5 weeks; type: organism-based; conditions: in vivo, 840 h, dose 1-10 mg/kg
# [19] = Toxicity in immune-competent Sprague-Dawley rat at 1 to 10 mg/kg, po administered twice a week for 5 weeks; type: organism-based; conditions: in vivo, 840 h, dose 1-10 mg/kg
# [20] = Drug distribution in Sprague-Dawley rat heart at 3 mg/kg, po measured at 1 hr by LC-MS/MS analysis; type: ADME, organism-based; conditions: read-out: Ct
# [21] = Drug distribution in SCID mouse liver at 0.3 mg/kg, po measured at 24 hrs by LC-MS/MS analysis; type: ADME, organism-based; conditions: read-out: Ct
# [22] = Drug distribution in SCID mouse plasma at 3 mg/kg, po measured at 1 hr by LC-MS/MS analysis; type: ADME, organism-based
# [23] = test system: VCaP; experiment: Antitumor activity against human VCaP cells xenografted in SCID mouse assessed as tumor growth inhibition at 0.3 mg/kg, po administered daily 5 times a week for 4 weeks; type: functional; conditions: 672 h, read-out: TGI
# [24] = Drug distribution in Sprague-Dawley rat plasma at 3 mg/kg, po measured at 24 hrs by LC-MS/MS analysis; type: ADME, organism-based
# [25] = test system: CWR22R; experiment: Antitumor activity against human 22Rv1 cells xenografted in SCID mouse assessed as tumor growth inhibition at 3 mg/kg, po administered 3 times a week for 3 weeks; type: functional; conditions: 22Rv1, 504 h, read-out: TGI
# [26] = Drug distribution in SCID mouse tumor at 1 mg/kg, po measured at 1 hr by LC-MS/MS analysis; type: ADME, organism-based, Neoplasm; conditions: read-out: Ct
# [27] = Drug distribution in SCID mouse spleen at 1 mg/kg, po measured at 6 hrs by LC-MS/MS analysis; type: ADME, organism-based; conditions: read-out: Ct
# [28] = Toxicity in immune-competent Sprague-Dawley rat assessed as change in albumin level at 1 to 10 mg/kg, po administered twice a week for 5 weeks; type: organism-based; conditions: in vivo, 840 h, dose 1-10 mg/kg
# [29] = Toxicity in immune-competent Sprague-Dawley rat assessed as change in white blood cells count at 1 to 10 mg/kg, po administered twice a week for 5 weeks; type: organism-based; conditions: in vivo, 840 h, dose 1-10 mg/kg
# [30] = Drug distribution in Sprague-Dawley rat spleen at 3 mg/kg, po measured at 24 hrs by LC-MS/MS analysis; type: ADME, organism-based; conditions: read-out: Ct
# [31] = Drug distribution in Sprague-Dawley rat liver at 10 mg/kg, po measured at 1 hr by LC-MS/MS analysis; type: ADME, organism-based; conditions: read-out: Ct
# [32] = Drug distribution in Sprague-Dawley rat kidney at 3 mg/kg, po measured at 24 hrs by LC-MS/MS analysis; type: ADME, organism-based; conditions: read-out: Ct
# [33] = Drug distribution in SCID mouse plasma at 3 mg/kg, po measured at 6 hrs by LC-MS/MS analysis; type: ADME, organism-based
# [34] = Drug distribution in SCID mouse liver at 3 mg/kg, po measured at 6 hrs by LC-MS/MS analysis; type: ADME, organism-based; conditions: read-out: Ct
# [35] = Cmax in Sprague-Dawley rat at 3 mg/kg, po measured upto 24 hrs by LC/MS-MS analysis; type: ADME, organism-based; conditions: in vivo
# [36] = Drug distribution in Sprague-Dawley rat plasma at 3 mg/kg, po measured at 6 hrs by LC-MS/MS analysis; type: ADME, organism-based
# [37] = Plasma protein binding in monkey by LC-MS analysis; type: ADME, cell-free, Macaca mulatta; conditions: rhesus monkey, read-out: PPB (converted)
# [38] = Drug distribution in SCID mouse plasma at 0.3 mg/kg, po measured at 6 hrs by LC-MS/MS analysis; type: ADME, organism-based
# [39] = Drug distribution in Sprague-Dawley rat plasma at 3 mg/kg, po measured at 1 hr by LC-MS/MS analysis; type: ADME, organism-based
# [40] = Drug concentration in SCID mouse tumor at 1 mg/kg, po measured at 6 hrs by LC-MS/MS analysis; type: ADME, organism-based, Neoplasm; conditions: read-out: Ct
# [41] = Plasma protein binding in mouse by LC-MS analysis; type: ADME, cell-free; conditions: read-out: PPB (converted)
# [42] = Drug distribution in SCID mouse plasma at 3 mg/kg, po measured at 24 hrs by LC-MS/MS analysis; type: ADME, organism-based
# [43] = Drug distribution in Sprague-Dawley rat plasma at 10 mg/kg, po measured at 6 hrs by LC-MS/MS analysis; type: ADME, organism-based
# [44] = Drug distribution in Sprague-Dawley rat liver at 10 mg/kg, po measured at 24 hrs by LC-MS/MS analysis; type: ADME, organism-based; conditions: read-out: Ct
# T1 sequence (P08684 whole entry): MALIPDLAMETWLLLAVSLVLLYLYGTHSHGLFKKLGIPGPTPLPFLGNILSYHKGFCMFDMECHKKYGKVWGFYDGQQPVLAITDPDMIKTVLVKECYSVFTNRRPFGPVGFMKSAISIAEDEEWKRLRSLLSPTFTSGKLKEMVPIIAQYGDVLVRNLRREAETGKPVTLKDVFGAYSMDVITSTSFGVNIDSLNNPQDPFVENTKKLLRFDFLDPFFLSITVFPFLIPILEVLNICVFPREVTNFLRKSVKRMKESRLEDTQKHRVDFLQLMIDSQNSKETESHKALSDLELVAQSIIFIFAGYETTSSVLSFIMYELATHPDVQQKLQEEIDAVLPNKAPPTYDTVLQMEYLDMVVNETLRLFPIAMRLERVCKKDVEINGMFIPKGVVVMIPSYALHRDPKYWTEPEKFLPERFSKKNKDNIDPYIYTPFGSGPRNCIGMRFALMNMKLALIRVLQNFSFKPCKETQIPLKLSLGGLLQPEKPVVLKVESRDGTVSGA
structure (smiles),measurement,setting,value
CC(=O)N1CCc2c(c(N3CCCc4cc(-c5cnn(C)c5)c(C(F)F)cc43)nn2[C@H]2CC[C@H](CN3Cc4cc5c(cc4C3)C(=O)N(C3CCC(=O)NC3=O)C5=O)CC2)C1 (some centres undefined),IC50,[1],> 10 µM
same,concentration at 6 h,[2],148 ng/g
same,bioavailability,[3],60%
same,half-life,[4],0.8 h
same,Activity,[5],Non-Toxic
same,concentration at 1 h,[6],323 ng/mL
same,half-life,[7],1.08 h
same,half-life,[8],> 2 h
same,half-life,[9],> 2 h
same,Activity,[10],Non-Toxic
same,Activity,[11],Non-Toxic
same,concentration at 1 h,[12],141 ng/mL
same,concentration at 1 h,[13],638 ng/g
same,half-life,[14],1.3 h
same,Activity,[15],67%
same,Activity,[16],Non-Toxic
same,IC50,[17],> 10 µM
same,Activity,[18],Non-Toxic
same,Activity,[19],Non-Toxic
same,concentration at 1 h,[20],246 ng/g
same,concentration at 24 h,[21],5.6 ng/mL
same,concentration at 1 h,[22],747 ng/mL
same,inhibition in vivo at 0.3 mg/kg,[23],84%
same,concentration at 24 h,[24],1.3 ng/mL
same,inhibition in vivo at 3 mg/kg,[25],83%
same,concentration at 1 h,[26],155 ng/g
same,concentration at 6 h,[27],127 ng/mL
same,Activity,[28],Non-Toxic
same,Activity,[29],Non-Toxic
same,concentration at 24 h,[30],8.1 ng/g
same,concentration at 1 h,[31],4100 ng/g
same,concentration at 24 h,[32],2.1 ng/g
same,concentration at 6 h,[33],763 ng/mL
same,concentration at 6 h,[34],1750 ng/mL
same,Cmax,[35],221 ng/mL
same,concentration at 6 h,[36],13.1 ng/mL
same,fraction unbound,[37],0.009
same,concentration at 6 h,[38],12.7 ng/mL
same,concentration at 1 h,[39],109 ng/mL
same,concentration at 6 h,[40],12.6 ng/g
same,fraction unbound,[41],0.016
same,concentration at 24 h,[42],12.7 ng/mL
same,concentration at 6 h,[43],41.4 ng/mL
same,concentration at 24 h,[44],20.2 ng/g
